Columns and labels:
[1] = Terminal tissue and organ weights (fat pads, adrenal gland, liver, kidney, testes); conditions: 10.0 mg/kg orally once daily, end of 14 week study
[2] = Body weight and food intake in rats dosed for 14 weeks; type: in vivo, rat
Protocol: (§1) Single-housed rats weighing 230-350 grams at the start of the experiment were provided free access to laboratory rodent chow pellets and tap water. Rats were divided into two groups, eight rats per group, matched for food intake and body weight over a two week baseline period. […] The second group of rats (control rats) was similarly administered drug vehicle (0.25% methyl cellulose solution). Body weight and food intake were measured once a week for 14 weeks.

Plasma leptin = Plasma leptin levels by commercial radioimmunoassay kit; type: in vivo, rat; conditions: rats, 10.0 mg/kg orally once daily, end of 14 week study, vs control
Protocol: as §1
At the end of the experiment, rats were killed by exposure to carbon dioxide. Blood was collected by cardiac puncture, and rats were shaved and eviscerated. Retroperitoneal white adipose tissue, epidydimal white adipose tissue, adrenal gland, liver, kidney and testes were rapidly dissected and weighed. Plasma leptin levels were measured using a commercial radioimmunoassay kit.

[3] = Terminal carcass composition (lipid, water, fat free dry weight); type: in vivo, rat; conditions: 10.0 mg/kg orally once daily
Protocol: as §1
Terminal carcass composition was measured. Shaved, eviscerated rats were coarsely ground and dried to a constant weight at 70° C. Dehydrated carcasses were finely ground in a blender. Lipid was extracted from a homogeneous sample with petroleum ether. Water and lipid contents were determined gravimetrically, and the remaining carcass component was termed fat free dry weight.

## C#CCN(C)[C@H](C)Cc1ccccc1 [L-selegiline]
[1]
  epidydimal fat pad weighed less than in control rats: 23%
  retroperitoneal fat pad weighed less than in control rats: 27%
[1]; rats
  weight of non-fat organs (adrenal gland, liver, kidney, testes): did not weigh less
[2]; 10.0 mg/kg L-selegiline hydrochloride orally by gavage once daily, 14 week study
  lower weight gain compared to control rats: 14%
[2]; 10.0 mg/kg orally once daily, 14 week study
  weight gain less than untreated counterparts: approximately 34 g
[2]; 10.0 mg/kg orally once daily, 14 weeks
  food intake versus control group: comparable
Plasma leptin
  plasma leptin levels reduced: 41%
[3]; 14 weeks
  adipose tissue gain less than that of untreated control rats: 94%
[3]; rats, 14 weeks
  share of the overall 34 gram weight loss accounted for by body fat reduction: 94%
[3]; rats, terminal carcass
  lean body mass: no reduction
  whole carcass water content: no reduction

Reference: patent US20070078172A1, “MAO-B INHIBITORS USEFUL FOR TREATING OBESITY” (JENRIN DISCOVERY, priority 2005, published 2007)
